Data reported in PMC12635268, “Novel antimicrobial peptides and peptide-microbiome crosstalk in Appalachian salamander skin” (NPJ Biofilms and Microbiomes, 2025).
≈ marks a conversion by molar mass, not a printed value. Read-outs that look alike come from different tables or passages of the source.

Experiments:
Assay in all cases: microbe, parasite or virus in culture
A. baumannii ATCC 19606 = conditions: Acinetobacter baumannii
Method in brief: (§1)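 Broth microdilution in cation-adjusted Mueller-Hinton broth, final inoculum 1 × 10⁵ CFU/mL, peptides 0.25 to 128 μg/mL in 0.02% TFA + 0.04% BSA. Duplicates incubated 20 h at 37 °C without agitation. MIC read visually per CLSI with image-analysis support.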

E. coli ATCC 35218 = conditions: for Bacterial MIC: E. coli 35218; for MIC: Escherichia coli
Method in brief: as §1

E. faecium ATCC 19434 = conditions: Enterococcus faecium
Method in brief: as §1

E. faecium ATCC 49224 = conditions: Enterococcus faecium
Method in brief: as §1

K. pneumoniae ATCC 13883 = conditions: Klebsiella pneumoniae
Method in brief: as §1

[1] = system: K. pneumoniae ATCC 700603; conditions: Klebsiella pneumoniae
Method in brief: as §1

P. aeruginosa ATCC 27853 = conditions: Pseudomonas aeruginosa
Method in brief: as §1

P. aeruginosa MRSN 5519 = conditions: Pseudomonas aeruginosa
Method in brief: as §1

S. aureus ATCC 25923 = conditions: for Bacterial MIC: S. aureus 25923; for MIC: Staphylococcus aureus
Method in brief: as §1

S. aureus ATCC 43300 = conditions: for Bacterial MIC: S. aureus 43300; for MIC: Staphylococcus aureus
Method in brief: as §1

P. aeruginosa PA01 = assay type: cell-based; conditions: Pseudomonas aeruginosa
Method in brief: as §1

P. aeruginosa PA01 (Si) = assay type: cell-based; conditions: P. aeruginosa PA01 (Si), not typical ESKAPEE strain
From the text: Supplement 41522_2025_837_MOESM13_ESM.xlsx, sheet "Table_S13_ESKAPEE-MIC" | column: Bacterial MIC (µg/mL)

C[C@H]1COc2c(N3CCN(C)CC3)c(F)cc3c(=O)c(C(=O)O)cn1c23 [Levofloxacin, reference compound]
MIC (A. baumannii ATCC 19606; ATCC19606, 20 h, A. baumannii 19606, CAMHB, 1 × 10⁵ CFU/mL, 0.25 to 128 μg/mL, 37 °C 20 h, duplicate, read visually (CLSI)): 0.25 µg/mL (≈ 0.692 µM) | MIC (A. baumannii ATCC 19606; ATCC19606, read-out: Bacterial MIC, A. baumannii 19606, Historical run 15NOV23): 0.5 µg/mL (≈ 1.38 µM) | MIC (A. baumannii ATCC 19606; ATCC19606, read-out: Bacterial MIC, A. baumannii 19606, Historical run 19APRIL23): 0.5 µg/mL (≈ 1.38 µM) | MIC (A. baumannii ATCC 19606; ATCC19606, read-out: Bacterial MIC, A. baumannii 19606, Historical run 22NOV23): ≤ 0.25 µg/mL | MIC (A. baumannii ATCC 19606; ATCC19606, read-out: Bacterial MIC, A. baumannii 19606, Week 1 (12/6/2023)): ≤ 0.25 µg/mL | MIC (A. baumannii ATCC 19606; ATCC19606, read-out: Bacterial MIC, A. baumannii 19606, Week 2 (12/14/2023)): ≤ 0.25 µg/mL | Bacterial MIC (E. coli ATCC 35218; Historical run 15NOV23): <= 0.250 µg/mL | Bacterial MIC (E. coli ATCC 35218; Historical run 19APRIL23): <= 0.250 µg/mL | Bacterial MIC (E. coli ATCC 35218; Historical run 22NOV23): <= 0.250 µg/mL | Bacterial MIC (E. coli ATCC 35218; Week 2 (12/14/2023)): <= 0.250 µg/mL | MIC (E. coli ATCC 35218; ATCC35218, 20 h): 0.25 µg/mL (≈ 0.692 µM) | MIC (E. coli ATCC 35218; ATCC35218, read-out: Bacterial MIC): ≤ 0.25 µg/mL | MIC (E. faecium ATCC 19434; ATCC19434, 20 h, E. faecium 19434, CAMHB, 1 × 10⁵ CFU/mL, 0.25 to 128 μg/mL, 37 °C 20 h, duplicate, read visually (CLSI)): 4 µg/mL (≈ 11.1 µM) | MIC (E. faecium ATCC 19434; ATCC19434, read-out: Bacterial MIC, E. faecium 19434, Historical run 15NOV23): 4 µg/mL (≈ 11.1 µM) | MIC (E. faecium ATCC 19434; ATCC19434, read-out: Bacterial MIC, E. faecium 19434, Historical run 19APRIL23): 4 µg/mL (≈ 11.1 µM) | MIC (E. faecium ATCC 19434; ATCC19434, read-out: Bacterial MIC, E. faecium 19434, Historical run 22NOV23): 2 µg/mL (≈ 5.53 µM) | MIC (E. faecium ATCC 19434; ATCC19434, read-out: Bacterial MIC, E. faecium 19434, Week 1 (12/6/2023)): 4 µg/mL (≈ 11.1 µM) | MIC (E. faecium ATCC 19434; ATCC19434, read-out: Bacterial MIC, E. faecium 19434, Week 2 (12/14/2023)): 4 to 8 µg/mL (≈ 11.1 to 22.1 µM) | MIC (E. faecium ATCC 49224; ATCC49224, 20 h, E. faecium 49224, CAMHB, 1 × 10⁵ CFU/mL, 0.25 to 128 μg/mL, 37 °C 20 h, duplicate, read visually (CLSI)): 2 µg/mL (≈ 5.53 µM) | MIC (E. faecium ATCC 49224; ATCC49224, read-out: Bacterial MIC, E. faecium 49224, Historical run 15NOV23): 1 µg/mL (≈ 2.77 µM) | MIC (E. faecium ATCC 49224; ATCC49224, read-out: Bacterial MIC, E. faecium 49224, Historical run 19APRIL23): 2 µg/mL (≈ 5.53 µM) | MIC (E. faecium ATCC 49224; ATCC49224, read-out: Bacterial MIC, E. faecium 49224, Historical run 22NOV23): 1 µg/mL (≈ 2.77 µM) | MIC (E. faecium ATCC 49224; ATCC49224, read-out: Bacterial MIC, E. faecium 49224, Week 1 (12/6/2023)): 2 µg/mL (≈ 5.53 µM) | MIC (E. faecium ATCC 49224; ATCC49224, read-out: Bacterial MIC, E. faecium 49224, Week 2 (12/14/2023)): 2 µg/mL (≈ 5.53 µM) | MIC (K. pneumoniae ATCC 13883; ATCC13883, 20 h, K. pneumoniae 13883, CAMHB, 1 × 10⁵ CFU/mL, 0.25 to 128 μg/mL, 37 °C 20 h, duplicate, read visually (CLSI)): 0.25 µg/mL (≈ 0.692 µM) | MIC (K. pneumoniae ATCC 13883; ATCC13883, read-out: Bacterial MIC, K. pneumoniae 13883, Historical run 15NOV23): ≤ 0.25 µg/mL | MIC (K. pneumoniae ATCC 13883; ATCC13883, read-out: Bacterial MIC, K. pneumoniae 13883, Historical run 19APRIL23): 0.25 to 0.5 µg/mL (≈ 0.692 to 1.38 µM) | MIC (K. pneumoniae ATCC 13883; ATCC13883, read-out: Bacterial MIC, K. pneumoniae 13883, Historical run 22NOV23): ≤ 0.25 µg/mL | MIC (K. pneumoniae ATCC 13883; ATCC13883, read-out: Bacterial MIC, K. pneumoniae 13883, Week 1 (12/6/2023)): ≤ 0.25 µg/mL | MIC (K. pneumoniae ATCC 13883; ATCC13883, read-out: Bacterial MIC, K. pneumoniae 13883, Week 2 (12/14/2023)): ≤ 0.25 µg/mL | MIC ([1]; ATCC700603, 20 h, K. pneumoniae 700603, CAMHB, 1 × 10⁵ CFU/mL, 0.25 to 128 μg/mL, 37 °C 20 h, duplicate, read visually (CLSI)): 0.5 µg/mL (≈ 1.38 µM) | MIC ([1]; ATCC700603, read-out: Bacterial MIC, K. pneumoniae 700603, Historical run 15NOV23): 0.5 µg/mL (≈ 1.38 µM) | MIC ([1]; ATCC700603, read-out: Bacterial MIC, K. pneumoniae 700603, Historical run 19APRIL23): 0.5 to 1 µg/mL (≈ 1.38 to 2.77 µM) | MIC ([1]; ATCC700603, read-out: Bacterial MIC, K. pneumoniae 700603, Historical run 22NOV23): ≤ 0.25 µg/mL | MIC ([1]; ATCC700603, read-out: Bacterial MIC, K. pneumoniae 700603, Week 1 (12/6/2023)): 0.5 µg/mL (≈ 1.38 µM) | MIC ([1]; ATCC700603, read-out: Bacterial MIC, K. pneumoniae 700603, Week 2 (12/14/2023)): 0.5 µg/mL (≈ 1.38 µM) | MIC (P. aeruginosa ATCC 27853; ATCC27853, 20 h, P. aeruginosa 27853, CAMHB, 1 × 10⁵ CFU/mL, 0.25 to 128 μg/mL, 37 °C 20 h, duplicate, read visually (CLSI)): 0.5 µg/mL (≈ 1.38 µM) | MIC (P. aeruginosa ATCC 27853; ATCC27853, read-out: Bacterial MIC, P. aeruginosa 27853, Historical run 15NOV23): 1 µg/mL (≈ 2.77 µM) | MIC (P. aeruginosa ATCC 27853; ATCC27853, read-out: Bacterial MIC, P. aeruginosa 27853, Historical run 19APRIL23): 1 µg/mL (≈ 2.77 µM) | MIC (P. aeruginosa ATCC 27853; ATCC27853, read-out: Bacterial MIC, P. aeruginosa 27853, Historical run 22NOV23): 0.5 µg/mL (≈ 1.38 µM) | MIC (P. aeruginosa ATCC 27853; ATCC27853, read-out: Bacterial MIC, P. aeruginosa 27853, Week 1 (12/6/2023)): 0.5 µg/mL (≈ 1.38 µM) | MIC (P. aeruginosa ATCC 27853; ATCC27853, read-out: Bacterial MIC, P. aeruginosa 27853, Week 2 (12/14/2023)): 0.5 µg/mL (≈ 1.38 µM) | MIC (P. aeruginosa MRSN 5519; MRSN5519, 20 h, P. aeruginosa 5519, CAMHB, 1 × 10⁵ CFU/mL, 0.25 to 128 μg/mL, 37 °C 20 h, duplicate, read visually (CLSI)): 32 µg/mL (≈ 88.6 µM) | MIC (P. aeruginosa MRSN 5519; MRSN5519, read-out: Bacterial MIC, P. aeruginosa 5519, Historical run 15NOV23): 64 µg/mL (≈ 177 µM) | MIC (P. aeruginosa MRSN 5519; MRSN5519, read-out: Bacterial MIC, P. aeruginosa 5519, Historical run 19APRIL23): 64 µg/mL (≈ 177 µM) | MIC (P. aeruginosa MRSN 5519; MRSN5519, read-out: Bacterial MIC, P. aeruginosa 5519, Historical run 22NOV23): 32 µg/mL (≈ 88.6 µM) | MIC (P. aeruginosa MRSN 5519; MRSN5519, read-out: Bacterial MIC, P. aeruginosa 5519, Week 1 (12/6/2023)): 32 µg/mL (≈ 88.6 µM) | MIC (P. aeruginosa MRSN 5519; MRSN5519, read-out: Bacterial MIC, P. aeruginosa 5519, Week 2 (12/14/2023)): 32 µg/mL (≈ 88.6 µM) | Bacterial MIC (S. aureus ATCC 25923; Historical run 15NOV23): <= 0.250 µg/mL | Bacterial MIC (S. aureus ATCC 25923; Historical run 19APRIL23): <= 0.250 µg/mL | Bacterial MIC (S. aureus ATCC 25923; Historical run 22NOV23): <= 0.250 µg/mL | Bacterial MIC (S. aureus ATCC 25923; Week 2 (12/14/2023)): <= 0.250 µg/mL | MIC (S. aureus ATCC 25923; ATCC25923, 20 h): 0.25 µg/mL (≈ 0.692 µM) | MIC (S. aureus ATCC 25923; ATCC25923, read-out: Bacterial MIC): ≤ 0.25 µg/mL | Bacterial MIC (S. aureus ATCC 43300; Historical run 15NOV23): <= 0.250 µg/mL | Bacterial MIC (S. aureus ATCC 43300; Historical run 19APRIL23): <= 0.250 µg/mL | Bacterial MIC (S. aureus ATCC 43300; Historical run 22NOV23): <= 0.250 µg/mL | Bacterial MIC (S. aureus ATCC 43300; Week 2 (12/14/2023)): <= 0.250 µg/mL | MIC (S. aureus ATCC 43300; ATCC43300, 20 h): 0.25 µg/mL (≈ 0.692 µM) | MIC (S. aureus ATCC 43300; ATCC43300, read-out: Bacterial MIC): ≤ 0.25 µg/mL | MIC (P. aeruginosa PA01; PA01, 20 h, P. aeruginosa PA01, CAMHB, 1 × 10⁵ CFU/mL, 0.25 to 128 μg/mL, 37 °C 20 h, duplicate, read visually (CLSI), read-out: MIC): 8 µg/mL (≈ 22.1 µM) | MIC (P. aeruginosa PA01; PAO1, P. aeruginosa 15692 (PAO1), Historical run 15NOV23, read-out: Bacterial MIC): 0.5 µg/mL (≈ 1.38 µM) | MIC (P. aeruginosa PA01; PAO1, P. aeruginosa 15692 (PAO1), Historical run 19APRIL23, read-out: Bacterial MIC): 0.5 µg/mL (≈ 1.38 µM) | MIC (P. aeruginosa PA01; PAO1, P. aeruginosa 15692 (PAO1), Historical run 22NOV23, read-out: Bacterial MIC): ≤ 0.25 µg/mL | MIC (P. aeruginosa PA01; PAO1, P. aeruginosa 15692 (PAO1), Week 2 (12/14/2023), read-out: Bacterial MIC): ≤ 0.25 µg/mL | Bacterial MIC (P. aeruginosa PA01 (Si); Week 2 (12/14/2023)): 8 µg/mL | MIC (P. aeruginosa PA01 (Si); Pseudomonas aeruginosa, Week 1 (12/6/2023), read-out: Bacterial MIC): 8 µg/mL (≈ 22.1 µM)
